The results in this text go back to patent US20230093162A1, “FATTY LIVER AND LIVER FIBROSIS EVALUATION SYSTEM BASED ON IMPEDANCE” (KOREA RESEARCH INSTITUTE OF CHEMICAL TECHNOLOGY, priority 2018, published 2023).

Structures are written as SMILES.

The test system of this series is liver microtissue (MT) of HepaRG hepatocyte strain. Briefly: Evaluation of drug induced fatty liver toxicity by impedance of liver microtissue. The class given is cell-based. Conditions: 0.5 M oleic acid. As to the method:
1. Completely differentiated HepaRG hepatocyte strain was obtained at the density of 4,000,000 cells/100 uL.
2. A sample was prepared according to the manual of C253000 provided by Microfit Co. 10 μL of cell suspension #1 was distributed in each well to allow 400,000 HepaRG cells to be placed per well. This step can be performed using a 3D cell preparation method such as a micropattern plate method or a hanging drop method.
3. The cells were cultured for 3 days and the cell culture medium was replaced every day.
4. On day 4, the microtissue (MT) was distributed in a 96-well plate (Ultra-Low attachment surface multiple well plate, Corning) using a 100 uL blue tip.
5a. The liver microtissue (MT) distributed in the Ultra-Low attachment surface multiple well plate was treated with 0.5 M oleic acid, a fatty liver toxicity inducing drug.
6a. A 200 μL pipette was inserted in the end of the first glass tube of Example 1 and the liver microtissue (MT) and the culture medium were sucked through the other end to fill the glass tube with preventing air bubble formation.
7a. The glass tube was inserted between the two Y tubes (third tube and fourth tube) of Example 1 and Example 4 with preventing air bubble formation.
8a. Air bubbles in the liquid were removed and let the wire of each Y tube shared the same liquid.
9a. The working electrode/sensing electrode of the potentiostat or impedance analyzer was connected to the gold (Au) wire protruding out of the Y tube (iii tube) and the reference/counter electrode was connected to the platinum (Pt) wire protruding out of the other Y tube (III tube).
10a. The liver microtissue (MT) was placed at the end of the plastic tip by using a 1 mL syringe.
11a. The pressure was set at −5 mPa by using the syringe pump and the liver microtissue (MT) was fixed at the plastic tip by the pressure difference.
12a. Alternating current impedance was measured at a fixed voltage of 50 mV from 10^6 Hz to 10^−2 Hz to measure the impedance of the liver microtissue (MT) and the PBS buffer.
13a. The pressure of the syringe pump was set at 10 mPa to allow the liver microtissue (MT) to be removed from the plastic tip.
14a. Impedance was measured at a fixed voltage of 50 mV from 10^6 Hz to 10^−2 Hz to measure the impedance of the PBS buffer (background).
15a. The interior resistance, the exterior resistance and the capacitance of 12a and the resistance and the capacitance of 14a were measured by using a Fitting program (e.g. Zview).
16a. The interior resistance, the exterior resistance and the capacitance of the liver microtissue (MT) were compared with those of the normal control group. At that time, the normal control group indicates the liver microtissue (MT) not treated with oleic acid which was regarded as a fatty liver toxicity inducing drug.
17a. […]

For the molecule `CCCCCCCC/C=C\CCCCCCCC(=O)O` [oleic acid], the “fat formation in the liver microtissue (MT)” value is recorded as “fat was formed”. The “impedance of the liver microtissue (MT)” value (compared with the normal control group, FIG. 2a, 2b, 3) is listed as “increased”. Moreover, for the setting “compared with the normal control group, according to the pressure changes, FIG. 3”, the “resistance of the liver microtissue (MT)” value was “increased”. Besides, the “internal resistance of the liver microtissue (MT)” value (fitted with Zview, compared with normal control) is “increased”.
